Like-named read-outs stand apart in the source and are kept apart here.
Experiments:
[1] = Decay kinetics of nitrone-superoxide adducts (EPR, riboflavin-light system); assay type: physicochemical; conditions: pH 7.2 and 23° C.; this work
Description: Decay Kinetics In a typical decay kinetic study, 50 μL solution containing 25 mM of the nitrone and 100 μM riboflavin was irradiated for 3 min in the cavity. […] All data were the average of 3 or more measurements.

[2] = Partition coefficient n-octanol/water (buffer); assay type: physicochemical; conditions: for Kp (n-octanol/water): pH 7.2, shaken for 2 hrs at 37° C.
[3] = value of the competitor DEPMPO used as basis of the calculation; cited from earlier work
[4] = pH 7.2 and 23° C.; literature reference; cited from earlier work
[5] = Rate of superoxide radical trapping by competitive trapping versus DEPMPO (EPR); conditions: based on kDEPMPO=58 M^−1 s^−1
Description: The nitrone 5-carbamoyl-5-methyl-1-pyrroline N-oxide (AMPO) was successfully synthesized and characterized. […] Resulting spin adducts for each of these radicals gave unique spectral profiles. […] Theoretical analyses using density functional theory calculations at the B3LYP/6-31=G**/B3LYP6-31G* level were performed on AMPO and its corresponding suproxide product. Calculations predicted the presence of intramolecular H-bonding in both AMPO and its superoxide adduct, and these interactions were further confirmed by an X-ray structure (in the case of AMPO) of a novel and the amido nitrone compound 2-amino-5-carbamoyl-5-methyl-1-pyrroline N-oxide (NH2-AMPO).
(§1) Trapping of O2^•−. Typical O2^•− trapping experiments utilized the riboflavin-light system as described in the Kinetics section. An alternative O2^•− generating system used a solution of 0.4 mM xanthine and 0.5 unit/mL xanthine oxidase, or 10 nM PMA and 8×10^5 neutrophil cells in 25 mM AMPO. Spectra were acquired over a period of 15 min.

[6] = Spin trapping of radicals detected by EPR spectroscopy; conditions: hydroxyl, superoxide, C-centered, sulfite, and tert-butoxyl radicals
Description: Miscellaneous Spin Trapping Studies Fenton reaction system. A 50 μL 0.1 M phosphate buffer solution containing 30 mM AMPO, 1% H2O2 and 65 mM FeSO4 was transferred to a 50 μL capillary tube and EPR spectrum of the hydroxyl adduct was recorded over 5 min time period.
Trapping of SO3^•−, CO2^•− and CH3.CHOH radicals. 50 μL 0.1 M phosphate buffer solution containing 30 mM AMPO, 1% H2O2 and 100 mM of the respective radical source NaHCO2, Na2SO3, or ethanol with 65 mM freshly prepared FeSO4. The mixture was then transferred to 50 μL capillary tube and EPR spectrum of the adduct was recorded over a 5 min time period.
Trapping of GS. and t-BuO. radicals. 50 μL 0.1 M phosphate buffer solution containing 30 mM AMPO and 100 mM GSSG or (CH3)3CO—OC(CH3)3. The mixture was then transferred to 50 μL capillary tube and the radicals were generated by UV photolysis. EPR spectrum of the adduct was recorded over a 5 min time period.
as §1

Kp (n-octanol/water) [2]	Compound	kl /10^−4s^−1 (first order decay of nitrone-superoxide adduct) [1]	Rate of superoxide radical trapping (k), reference value [3] [M⁻¹ s⁻¹]	kl /10^−4s^−1 (first order decay of nitrone-superoxide adduct) [4]	t1/2/min, first order approximation half-life of nitrone-superoxide adduct [4] [min]	Rate of superoxide radical trapping (k) [5] [M⁻¹ s⁻¹]	partition coefficient in an n-octanol/buffer system (comparison in words) ([2]; n-octanol/buffer system)	Spin trapping of radicals by EPR [6]
0.06	CC1(C)CCC=[N+]1[O-] [DMPO]	–	–	129.0 10^−4s^−1	0.9	–	–	–
0.33	CCOC(=O)C1(C)CCC=[N+]1[O-] (stereo not shown) [EMPO, 5-ethoxycarbonyl-5-methyl-1-pyrroline N-oxide]	11.6 ± 0.5 10^−4s^−1	–	–	–	44	–	–
0.03	CC1(C(N)=O)CCC=[N+]1[O-] (stereo not shown) [AMPO, 5-carbamoyl-5-methyl-1-pyrroline N-oxide]	14.0 ± 1.2 10^−4s^−1	–	–	–	38	comparable value to those of DMPO and DEPMPO	has been demonstrated

Compound	Kp (n-octanol/water) [2]	kl /10^−4s^−1 (first order decay of nitrone-superoxide adduct) [1]	Rate of superoxide radical trapping (k), reference value [3] [M⁻¹ s⁻¹]	kl /10^−4s^−1 (first order decay of nitrone-superoxide adduct) [4]	t1/2/min, first order approximation half-life of nitrone-superoxide adduct [4] [min]	Rate of superoxide radical trapping (k) [5] [M⁻¹ s⁻¹]	partition coefficient in an n-octanol/buffer system (comparison in words) ([2]; n-octanol/buffer system)	Spin trapping of radicals by EPR [6]
CCOP(=O)(OCC)C1(C)CCC=[N+]1[O-] (stereo not shown) [DEPMPO, 5-diethoxyphosphoryl-5-methyl-1-pyrroline N-oxide]	0.16	7.5 ± 0.7 10^−4s^−1	58	8.13 10^−4s^−1	14.2	–	–	–
